Results published in US7553618B2, “Method for determining human immunodeficiciency virus type 1 (HIV-1) hypersusceptibility to the protease inhibitor amprenavir” (Monogram Biosciences, Inc., priority 2002, dated 2009).

System: HIV-1 from patient plasma samples
Experiment: PHENOSENSE HIV phenotypic susceptibility assay, fold change in IC50 of patient virus versus NL4-3 reference virus
Type: cell-based
Settings: Patient IC50/reference (NL4-3) IC50; for Fold change (FC) in IC50, 10th percentile: 10th percentile of distribution over 1515 patient samples, hypersusceptibility cut-off; for Fold change (FC) in IC50, 90th percentile: 90th percentile of distribution over 1515 patient samples; for Fold change (FC) in IC50, mean: mean over 1515 patient samples without resistance-selected mutations; for Fold change (FC) in IC50, median: median over 1515 patient samples without resistance-selected mutations
Protocol: In a preferred embodiment, the phenotypic analysis is performed using PHENOSENSE™ (ViroLogic Inc., South San Francisco, Calif.). See Petropoulos et al., 2000, Antimicrob. Agents Chemother. 44:920-928; U.S. Pat. Nos. 5,837,464 and 6,242,187. PHENOSENSE™ is a phenotypic assay that achieves the benefits of phenotypic testing and overcomes the drawbacks of previous assays. Because the assay has been automated, PHENOSENSE™ offers higher throughput under controlled conditions. The result is an assay that accurately defines the susceptibility profile of a patient's HIV isolates to all currently available antiretroviral drugs, and delivers results directly to the physician within about 10 to about 15 days of sample receipt. PHENOSENSE™ is accurate and can obtain results with only one round of viral replication, thereby avoiding selection of subpopulations of virus. The results are quantitative, measuring varying degrees of drug susceptibility, and sensitive—the test can be performed on blood specimens with a viral load of about 500 copies/mL and can detect minority populations of some drug-resistant virus at concentrations of 10% or less of total viral population. Furthermore, the results are reproducible and can vary by less than about 1.4-2.5 fold, depending on the drug, in about 95% of the assays performed.
A resistance test vector (“RTV”) can then be constructed by incorporating the amplified viral gene sequences into a replication defective viral vector by using any method known in the art of incorporating gene sequences into a vector. In one embodiment, restrictions enzymes and conventional cloning methods are used. See Sambrook et al., 2001, Molecular Cloning: A Laboratory Manual, Cold Spring Harbor Laboratory, 3rd ed., NY; and Ausubel et al., 1989, Current Protocols in Molecular Biology, Greene Publishing Associates and Wiley Interscience, NY. In a preferred embodiment, ApaI and PinAI restriction enzymes are used. Preferably, the replication defective viral vector is the indicator gene viral vector (“IGVV”). In a preferred embodiment, the viral vector contains a means for detecting replication of the RTV. Preferably, the viral vector contains a luciferase expression cassette.
The assay can be performed by first co-transfecting host cells with RTV DNA and a plasmid that expresses the envelope proteins of another retrovirus, for example, amphotropic murine leukemia virus (MLV). Following transfection, virus particles can be harvested and used to infect fresh target cells. The completion of a single round of viral replication can be detected by the means for detecting replication contained in the vector. In a preferred embodiment, the completion of a single round of viral replication results in the production of luciferase. Serial concentrations of anti-viral agents can be added at either the transfection step or the infection step.
Susceptibility to the anti-viral agent can be measured by comparing the replication of the vector in the presence and absence of the anti-viral agent. For example, susceptibility to the anti-viral agent can be measured by comparing the luciferase activity in the presence and absence of the anti-viral agent. Susceptible viruses would produce low levels of luciferase activity in the presence of anti-viral agents, whereas viruses with reduced susceptibility would produce higher levels of luciferase activity.
In order to determine the relationship between an HIV-1 strain's protease sequence and its susceptibility to treatment with a protease inhibitor, a data set of patient plasma samples was analyzed genotypically as well as phenotypically. The phenotypic assay was conducted using the PHENOSENSE™ (Virologic, South San Francisco, Calif.) HIV assay (Petropoulos et al., 2000, Antimicrob. Agents Chemother. 44:920-928; U.S. Pat. Nos. 5,837,464 and 6,242,187). Plasma samples were collected from HIV-1-infected patients. […]

SMILES	Fold change (FC) in IC50, 10th percentile	Fold change (FC) in IC50, 90th percentile	Fold change (FC) in IC50, mean	Fold change (FC) in IC50, median
CC(C)(C)NC(=O)[C@@H]1C[C@@H]2CCCC[C@@H]2CN1C[C@@H](O)[C@H](Cc1ccccc1)NC(=O)[C@H](CC(N)=O)NC(=O)c1ccc2ccccc2n1 [SQV, saquinavir]	0.44	1.12	0.70	0.71
CC(C)c1nc(CN(C)C(=O)N[C@H](C(=O)N[C@@H](Cc2ccccc2)C[C@H](O)[C@H](Cc2ccccc2)NC(=O)OCc2cncs2)C(C)C)cs1 [RTV, ritonavir]	0.45	1.55	0.82	0.81
Cc1cccc(C)c1OCC(=O)N[C@@H](Cc1ccccc1)[C@@H](O)C[C@H](Cc1ccccc1)NC(=O)[C@H](C(C)C)N1CCCNC1=O [LPV, lopinavir]	0.40	1.15	0.68	0.69
CC(C)(C)NC(=O)[C@@H]1CN(Cc2cccnc2)CCN1C[C@@H](O)C[C@@H](Cc1ccccc1)C(=O)N[C@H]1c2ccccc2C[C@H]1O [IDV, indinavir]	0.44	1.35	0.78	0.78
CC(C)CN(C[C@@H](O)[C@H](Cc1ccccc1)NC(=O)O[C@H]1CCOC1)S(=O)(=O)c1ccc(N)cc1 [APV, amprenavir]	0.35	1.32	0.69	0.71
Cc1c(O)cccc1C(=O)N[C@@H](CSc1ccccc1)[C@H](O)CN1C[C@H]2CCCC[C@H]2C[C@H]1C(=O)NC(C)(C)C [NFV, nelfinavir]	0.54	2.09	1.05	1.05
